Positions of bridges follow the written chain, without caps; N, C: chain ends. Non-standard residues stand in square brackets, D forms with d. Residues, ends and D or L forms follow the SMILES beside them. Chains are numbered I, II in the order given. *: point of attachment. 2Nal = N[C@@H](Cc1ccc2ccccc2c1)C(=O)O; Val(3-OH) = CC(C)(O)[C@H](N)C(=O)O; Tle = CC(C)(C)[C@H](N)C(=O)O; X1 = O=C(c1ccnc(Cl)c1Cl)*; AEEA = NCCOCCOCC(=O)O
Tests used:
[1] = Caco-2 permeability assay; format: in vitro ADME; conditions: human, Caco-2, pH 7.4
Protocol: (§1) Caco-2 permeability assay. To assay the permeability of test compounds by Caco-2 cell model, Caco-2 cells were cultured to confluency before being trypsinized and seeded onto filter transwell inserts at a density of 30,000 cells/well in DMEM medium. Cells were cultured in a humidified atmosphere with 5% CO2 at 37° C. After overnight attachment, cell medium was replaced with fresh medium at both apical and basolateral sides every other day. The cell monolayers are ready for the assay 20 days post seeding. […] The dosing solution at 10 μM was obtained by diluting 10 mM stock solution in HBSS medium (pH 7.4, 25 mM HEPES) freshly before the assay. Terfenadine (25 ng/mL) and Tolbutamide (50 ng/mL) were added into dosing solution as internal standards. […] The culture medium from either the basolateral side (plate B) or apical side (plate A) were aspirated and then rinsed with HBSS medium once. Afterwards, the dosing medium was added to either basolateral or apical side. Following the incubation, 100 microliter samples from both sides were harvested at time 0 and time 90 min. Samples were quenched with acetonitrile/methanol (1:1 v/v), centrifuged, and analyzed on a Shimadzu reversed-phase HPLC and Sciex API4500 Q trap instrument.
(§2) Permeability parameters were calculated using the following equations and shown in Table 10: Papp=(Conc.receiver,90 min*Volumereceiver)/(Time*Membrane Area*Conc.donor,0 min) Efflux Ratio=Papp[B to A]/Papp[A to B]

Caco-2 cell monolayers = assay: Caco-2 permeability assay; format: in vitro ADME
Protocol: as §1, §2

[2] = Liver microsome stability assay; format: in vitro ADME; conditions: mouse liver microsome
Protocol: Liver microsome stability assay. Liver microsome stability was assessed using mouse microsome (cat. M1000, XenoTech). Ten mM stock solution of CNI103 was similarly prepared in DMSO. One hundred micromolar of CNI103 solution was prepared by diluting the DMSO stock in phosphate buffer (50 mM potassium phosphate, pH 7.4). To assay the stability, liver microsomes (final concentration 0.5 mg/mL) were mixed with testing samples gently and incubated at 37° C. for 5 min. At varying time points post reaction (0, 5, 15, 30, and 60 min), 25 microliter aliquots were withdrawn and each aliquot (25 microliter) was quenched with 300 μL of an internal standard solution (25 ng/mL terfenadine in 1:1 v/v methanol/acetonitrile) followed by vigorous vortexing and centrifugation. To assess metabolism by P450 enzymes, the microsome degradation reaction was supplemented with NADPH (final 1 mM) followed by gentle mixing. 100 μL aliquots of the reaction mixture were withdrawn at 0, 30, or 60 min, diluted two fold with distilled water, and subjected to LC-MS/MS analysis on a reversed-phase HPLC coupled with Sciex 4500 Q-trap based quantification.

mouse hepatocytes = assay: Stability in mouse hepatocytes; format: in vitro ADME; conditions: 2 μM
Protocol: (§3) Stability of CNI103 in mouse hepatocytes. Hepatocyte stability was assessed by using mouse hepatocyte (cat. M005052, BioIVT). Mouse hepatocytes were revived following manufacturer's procedure with Cryopreserved Hepatocyte Recovery Medium and used for the assay when cell viability was greater than 70%. Testing compound (at 2 μM) was mixed with mouse hepatocytes at 37° C. in a humidified incubator with 5% CO2. Final hepatocyte cell density was 2 million per mL. […] of the resulting supernatant was diluted two fold with distilled water and analyzed by reversed-phase HPLC coupled with Sciex 4500 Q-trap based quantification.

[3] = Stability in mouse hepatocytes; format: in vitro ADME
Protocol: as §3

HCT116 cell spheroids = assay: Cellular entry and intracellular stability by MALDI-TOF MS imaging; format: cell-based; conditions: 5 μM, 24 h of incubation
Protocol: Intracellular Stability. HCT116 cell spheroids in RPMI-1640 medium supplemented with 10% FBS and 1% penicillin/streptomycin were treated with 5 μM CNI103 for 4 or 24 h. Spheroids were washed three times with warm DPBS, quickly frozen, embedded in a solid support and cryo-sectioned. Prior to analysis, sinapinic acid was sublimed onto individual slides, which were subsequently imaged using a Bruker ultrafleXtreme MALDI-TOF-TOF mass spectrometer. The spectra were analyzed for intact CNI103 as well as proteolytic degradation fragments of interest. The MS signal intensity data were used to generate Heatmaps, scaled relative to the most intense signal, for each time point and fragment.

[4] = Stability in simulated intestinal fluid (SIF); format: in vitro ADME
Protocol: (§4) Stability of CNI103 in simulated gastric fluid (SGF) was evaluated by diluting CNI103 (final 5 μM) in FaSSGF buffer (pH 1.2), which was prepared from FaSSGF powder (cat no. FFF01, BioRelavant). Similarly, stability of CNI103 in simulated intestinal fluid (SIF) was evaluated by diluting CNI103 (final 5 μM) in FaSSIF buffer (pH 6.5), which was prepared from FaSSIF powder (cat no. FFF-1017-B, BioRelavant) supplemented with Lecithin and maleic acid. The solutions were incubated at 37° C. for 5, 15, 30, 60, or 120 min, and the concentration of remaining CNI103 was determined by LC/MS/MS analysis as described above.

[5] = Stability in simulated gastric fluid (SGF); format: in vitro ADME
Protocol: as §4

in vitro = in vitro ADME; parameters: dose or concentration left out as unconfirmed; conditions: mouse
Protocol: Plasma binding was assessed using mouse plasma obtained from in-life studies. CNI103 was diluted to […] in pre-warmed mouse plasma. The solution was added to the left chamber of a commercial plate based RED (rapid equilibrium dialysis) device. Isotonic sodium phosphate buffer (100 mM sodium phosphate, 100 mM sodium chloride, pH 7.4) was added to the outer chamber of the RED device and the plate was incubated at 37° C. for five hours. Aliquots of the buffer and the plasma were withdrawn before and after the incubation and the concentrations of free and bound test compound were determined by LC/MS/MS analysis. To test for plasma stability, the dosing solution was also incubated at 37° C. for 5 hours and the concentration of CNI103 was determined by LC/MS/MS analysis as described above.
The calculation of percentage binding is calculated using the following equations and the results are presented in Table 13: Binding %=(Cpe−Cb)/Cpe×100 • Cpe=Conc. of test compound in plasma at equilibrium • Cb=Conc. of test compound in buffer at equilibrium % Stability of test compound=(Conc. of stability sample/Conc. of time zero sample)×100 % Recovery=(Cpe+Cb)/Conc. of stability sample×100

Papp A→B at 90 min, 10 μM ([1]; N = 2, 10 μM, 90 min): 7.5 ×10⁻⁶ cm/s | Papp B→A at 90 min, 10 μM ([1]; N = 2, 10 μM, 90 min): 2.1 ×10⁻⁶ cm/s | efflux ratio at 90 min, 10 μM ([1]; Papp[B to A]/Papp[A to B]): 0.3 | Pgp Substrate (Caco-2 cell monolayers): No | remaining at 0.25 h ([2]; liver microsomes, pH 7.4, 15 min, read-out: % remaining (+NADPH)): 95.8% | remaining at 0.5 h ([2]; liver microsomes, pH 7.4, 30 min, read-out: % remaining (+NADPH)): 76% | remaining at 1 h ([2]; liver microsomes, pH 7.4, 60 min, read-out: % remaining (+NADPH)): 75.1% | % remaining (+NADPH) ([2]; 0 min): 100.0% | % remaining (−NADPH) ([2]; 0 min): 100.0% | % remaining (+NADPH) ([2]; 5 min): 131.1% | % remaining (−NADPH) ([2]; 30 min): 113.6% | % remaining (−NADPH) ([2]; 60 min): 70.8% | % remaining (mouse hepatocytes; 0 min): 100.00% | % remaining (mouse hepatocytes; 90 min): 141.77% | % remaining (mouse hepatocytes; 120 min): 124.89% | remaining at 0.25 h, 2 μM ([3]; 15 min): 103% | remaining at 0.5 h, 2 μM ([3]; 30 min): 101% | remaining at 1 h, 2 μM ([3]; 60 min): 120% | % remaining ([4]; SIF (FaSSIF, pH 6.5), 37° C., 0 min, n = 2): 100.00% | remaining at 5 min, 5 μM ([4]; simulated intestinal fluid (FaSSIF), pH 6.5, SIF, 5 min): 92.3% | remaining at 0.25 h, 5 μM ([4]; simulated intestinal fluid (FaSSIF), pH 6.5, SIF, 15 min): 109% | remaining at 0.5 h, 5 μM ([4]; simulated intestinal fluid (FaSSIF), pH 6.5, SIF, 30 min): 109% | remaining at 1 h, 5 μM ([4]; simulated intestinal fluid (FaSSIF), pH 6.5, SIF, 60 min): 95.9% | remaining at 2 h, 5 μM ([4]; simulated intestinal fluid (FaSSIF), pH 6.5, SIF, 120 min): 75.6% | % remaining ([5]; SGF (FaSSGF, pH 1.2), 37° C., 0 min, n = 2): 100.00% | remaining at 5 min, 5 μM ([5]; simulated gastric fluid (FaSSGF), pH 1.2, SGF, 5 min): 93.7% | remaining at 0.25 h, 5 μM ([5]; simulated gastric fluid (FaSSGF), pH 1.2, SGF, 15 min): 87.4% | remaining at 0.5 h, 5 μM ([5]; simulated gastric fluid (FaSSGF), pH 1.2, SGF, 30 min): 88.3% | remaining at 1 h, 5 μM ([5]; simulated gastric fluid (FaSSGF), pH 1.2, SGF, 60 min): 106% | remaining at 2 h, 5 μM ([5]; simulated gastric fluid (FaSSGF), pH 1.2, SGF, 120 min): 103% | recovery at 5 hours (in vitro; pH 7.4): 130% | remaining at 5 h (in vitro; plasma): 110% | fraction unbound at 5 h (in vitro; plasma, pH 7.4): 0.024
Structure (SMILES): CC[C@H](C)[C@H](NC(=O)[C@@H](NC(=O)c1ccnc(Cl)c1Cl)C(C)(C)C)C(=O)N[C@H](C(=O)N[C@H](C(=O)N[C@H](C(=O)N[C@@H](CCC(N)=O)C(=O)N[C@@H](Cc1c[nH]cn1)C(=O)N[C@H](CC(C)C)C(=O)N[C@@H](CO)C(=O)NCCOCCOCC(=O)N[C@@H](CCCCNC(=O)CC[C@@H]1NC(=O)[C@@H](CCCNC(=N)N)NC(=O)[C@H](CCCNC(=N)N)NC(=O)[C@@H](CCCNC(=N)N)NC(=O)[C@H](CCCNC(=N)N)NC(=O)[C@H](Cc2ccc3ccccc3c2)NC(=O)[C@@H](Cc2ccccc2)NC1=O)C(N)=O)[C@@H](C)O)[C@@H](C)CC)C(C)(C)O [CNI103, (DCNA)-Tle-Ile-Bhv-Ile-Thr-Gln-His-(D-Leu)-Ser-miniPEG-Lys{[cyclo-(Gln-(D-Arg)-Arg-(D-Arg)-Arg-(2-Nal)-(D-Phe)]}-NH2] (I: X1-[Tle]I[Val(3-OH)]ITQH[dL]S[AEEA]K-NH2 / II: cyclo([2Nal]R[dR]R[dR]E[dF]); amide I:11-II:6 (inferred); ring closure inferred)
intracellular degradation (HCT116 cell spheroids): No significant degradation product signal
